Values of other authors in patent publication US20200188436A1, “Compositions and Methods for Cancer Immunotherapy” (The UAB Research Foundation, priority 2016, published 2020).

Tests used:
[1] = test system: diffuse large B-cell lymphoma (DLBCL); conditions: phase II, DLBCL after autologous stem cell transplantation; preliminary results
recurrent multifocal GBM = conditions: two pediatric patients, refractory to standard therapies, single agent

Substance | subjects alive [1] [%] | subjects progression-free at the end of the follow-up period [1] [%] | clinical response (recurrent multifocal GBM)
CT-011: humanized IgG1 monoclonal antibody against PD-1 | 82 | 70 | –
nivolumab: immune checkpoint inhibitor, anti-PD1 antibody | – | – | remarkable and durable responses
